Eight compounds from US20250154288A1, “CYTOTOXICITY TARGETING CHIMERAS FOR C-C CHEMOKINE RECEPTOR 2-EXPRESSING CELLS” (GLAXOSMITHKLINE INTELLECTUAL PROPERTY DEVELOPMENT LIMITED, priority 2022, published 2025) can be followed below.

Where a name gives a salt, the structure may show the parent alone.

In assay [1] the target is T1, CHOK1 cells engineered to overexpress human CCR2 (Homo sapiens, UniProt P41597).
T1 construct: expressed in transfected cells; host or cells: CHOK1
Description: Antibody Dependent Cellular Cytotoxicity (ADCC) Reporter Assay. It is filed as cell-based. The conditions noted are these: with anti-cotinine antibody (human IgG1 Fc, S239D/I332E); Jurkat FcγRIIIa NFAT-luciferase reporter cells; average if several runs; read-out: ADCC Reporter Assay pEC50 (converted). As to the method:
An antibody dependent cellular cytoxocity reporter assay was conducted using the following four assay components: (i) ARM compound of Formula (I) targeting CCR2 (concentrations ranging from 1 pM to 10 μM) (ii) anti-cotinine antibody having a heavy chain sequence of SEQ ID NO: 11 and a light chain sequence of SEQ ID NO: 12 (rabbit variable region with human IgG1 Fc domain containing a DE mutation (S239D/I332E)) (concentrations ranging from 0.01 μg/mL to 200 μg/mL); (iii) target cells: CHOK1 cells engineered to overexpress either human CCR2 (typically 1000-20,000 cells per well) and (iv) reporter cells: Jurkat cells engineered to express FcγRIIIa with the reporter gene luciferase under the control of the NFAT promoter (typically 3000-75,000 cells per well). Reagents were combined in a final volume of 20 μL in a 384-well tissue culture treated plate. All four assay components were incubated together for about 12-18 hours. Thereafter, BioGlo Detection reagent (Promega) was added to the wells to lyse the cells and provide a substrate for the luciferase reporter protein. Luminescence signal was measured on a microplate reader and signal:background was calculated by dividing the signal of a test well by the signal obtained when no heterobivalent compound of Formula (I) was added. EC50 calculations were done using Graphpad Prism Software, specifically a nonlinear regression curve fit (Y=Bottom+(Top−Bottom)/(1+10 ^((Log EC50−X)*HillSlope))).
ARMs compounds of Formula (I) of the invention were tested for ADCC activity in the above assay in or more experimental runs and the results are shown in Table 3 below. Potency of the compounds of Formula (I) of the invention is reported as a pEC50 value. The pEC50 value is the negative log of the EC50 value, wherein the EC50 value is the half maximal effective concentration measured in molar (M). For compounds tested in more than one experimental run, the pEC50 value is reported as an average.

For assay [2], the target named is human alpha1 nicotinic acetylcholine (nACh) receptor (Homo sapiens, UniProt P02708+Q07001). Description: Nicotinic Acetylcholine Receptor Antagonism Assay (IONFlux automated patch clamp). The conditions noted are these: for IC50: antagonism of nAChR stimulated with acetylcholine, average if several runs; for Emax at 100 µM: maximum percentage antagonism at Maximum Concentration of Compound Tested 100 μM. It is filed as cell-based. Here is the method:
Cells expressing human alpha1 nicotinic acetylcholine (nACh) receptor (nAChR) were washed and dissociated using Trypsin containing buffer. Cells were then washed and seeded at a density of 3-5 million cells/mL and allowed to grow for 3 days. Then, 60-80 μL of cells were added to plates and incubated with dose response of an ARM compound of Formula (I) with a top concentration of either 10 μM or 100 μM. The receptor was then stimulated via addition of acetylcholine (ACh) and activation of the receptor was monitored via the IONFlux automated patch clamp system. IonFlux Data Analyzer software was utilized to perform leak subtraction and measure (min) peak current amplitude.
Data processing: (1) Current values recorded for vehicle only applications in individual traps/patterns were subtracted from corresponding current amplitude values for control, test article and control+test article. (2) Control response was calculated as % of the average response of the 3rd out of total 3 ACh (10 mM) applications alone. In rare situations, if the 3rd ACh response was obscured due to technical artifacts, the 2nd and/or 1st ACh (10 mM) application was considered as control. The peak current amplitude generated in the presence of each test article concentration was then used to calculate the % inhibition as compared to control response (10 mM ACh alone). These estimates were further corrected for vehicle response and run down corrected by normalizing with time matched control responses (10 mM ACh alone). The corrected percentages were then fit with a non-linear function in GraphPad Prism 6 (or later versions) to determine the IC50.
Exclusion criteria: (i) any n's with poor recording quality, (ii) control current amplitude <500 pA or (iii) significant outliers, as determined by the Grubbs' test.
ARMs compounds of Formula (I) of the invention were tested for antagonism of the nAChR in the above assay in […] experimental runs and the results are shown in Table 6 below. Antagonistic activity of the compounds of Formula (I) of the invention is reported as an IC50 value (half maximal inhibitory concentration) and the maximum percentage antagonism observed at the highest concentration of compound of Formula (I) tested, as indicated in Table 6. For compounds tested in more than one experimental run, the IC50 value is reported as an average.

Sequence of human alpha1 nicotinic acetylcholine (nACh) receptor (P02708 21-457): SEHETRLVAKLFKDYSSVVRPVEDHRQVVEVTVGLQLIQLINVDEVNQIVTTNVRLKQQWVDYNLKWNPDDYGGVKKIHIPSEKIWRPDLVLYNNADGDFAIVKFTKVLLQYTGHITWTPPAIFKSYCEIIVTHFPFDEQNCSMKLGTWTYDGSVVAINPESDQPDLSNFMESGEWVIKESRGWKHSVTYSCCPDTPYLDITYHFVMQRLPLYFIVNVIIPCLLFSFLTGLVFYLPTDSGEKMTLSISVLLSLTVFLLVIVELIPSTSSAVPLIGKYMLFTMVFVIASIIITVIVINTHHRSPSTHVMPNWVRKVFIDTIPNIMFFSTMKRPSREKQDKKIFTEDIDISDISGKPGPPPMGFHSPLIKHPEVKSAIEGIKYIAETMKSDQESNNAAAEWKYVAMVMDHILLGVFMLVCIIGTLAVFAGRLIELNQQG
Sequence of human alpha1 nicotinic acetylcholine (nACh) receptor (P11230 24-501 partner): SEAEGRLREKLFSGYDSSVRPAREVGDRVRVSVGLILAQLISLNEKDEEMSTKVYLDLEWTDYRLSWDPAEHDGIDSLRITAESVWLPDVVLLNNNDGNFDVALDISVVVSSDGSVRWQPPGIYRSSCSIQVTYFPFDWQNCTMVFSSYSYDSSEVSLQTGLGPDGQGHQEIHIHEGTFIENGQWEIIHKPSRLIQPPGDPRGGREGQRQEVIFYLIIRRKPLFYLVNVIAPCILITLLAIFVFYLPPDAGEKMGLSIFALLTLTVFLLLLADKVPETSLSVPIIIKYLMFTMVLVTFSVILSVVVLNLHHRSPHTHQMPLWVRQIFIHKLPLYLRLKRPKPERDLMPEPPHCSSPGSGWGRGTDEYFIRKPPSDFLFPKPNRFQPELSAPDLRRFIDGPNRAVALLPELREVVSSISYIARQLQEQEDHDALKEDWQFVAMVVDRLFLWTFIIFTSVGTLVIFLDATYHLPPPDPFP
Sequence of human alpha1 nicotinic acetylcholine (nACh) receptor (Q07001 22-517): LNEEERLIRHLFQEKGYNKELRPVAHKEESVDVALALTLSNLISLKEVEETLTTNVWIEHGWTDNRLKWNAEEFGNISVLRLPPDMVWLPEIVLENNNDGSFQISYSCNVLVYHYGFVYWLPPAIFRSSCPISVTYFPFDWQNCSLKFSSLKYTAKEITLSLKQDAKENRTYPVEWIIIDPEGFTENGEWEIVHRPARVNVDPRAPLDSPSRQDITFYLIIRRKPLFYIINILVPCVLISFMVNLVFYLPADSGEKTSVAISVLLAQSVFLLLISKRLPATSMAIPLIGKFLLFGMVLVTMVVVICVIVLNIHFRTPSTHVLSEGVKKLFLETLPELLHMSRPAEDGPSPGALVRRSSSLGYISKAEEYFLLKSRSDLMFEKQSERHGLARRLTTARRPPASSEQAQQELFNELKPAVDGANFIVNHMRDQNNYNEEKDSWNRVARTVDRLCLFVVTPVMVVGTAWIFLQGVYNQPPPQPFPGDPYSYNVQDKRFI

For the compound `CO[C@@H]1COCC[C@@H]1N[C@@H]1CC[C@](CCCNC(=O)[C@H]2CC[C@@H](NC(=O)CCCC(=O)NCCCC(=O)NCCCNC(=O)[C@H]3CC(=O)N(C)[C@@H]3c3cccnc3)CC2)(C(=O)N2CCc3ncc(C(F)(F)F)cc3C2)C1` [Example 16, N-((1R,4s)-4-((3-((1S,3R)-3-(((3S,4S)-3-Methoxytetrahydro-2H-pyran-4-yl)amino)-1-(3-(trifluoromethyl)-5,6,7,8-tetrahydro-1,6-naphthyridine-6-carbonyl)cyclopentyl)propyl)carbamoyl)cyclohexyl)-N-(4-((3-((2S,3S)-1-methyl-5-oxo-2-(pyridin-3-yl)pyrolidine-3-carboxamido)propyl)amino)-4-oxobutyl)glutaramide], the EC50 in assay [1] was 0.631 nM. This compound returned a concentration for half-maximal inhibition (IC50) in assay [2] of 71100 nM. Further, in assay [2] (read-out: Maximum Response (%)), the Emax at 100 µM came out at 64%.

`CO[C@@H]1COCC[C@@H]1N[C@@H]1CC[C@](CCCCNC(=O)[C@H]2CC[C@H](NC(=O)CCCO[C@H]3CC[C@@H](OCCNC(=O)[C@H]4CC(=O)N(C)[C@@H]4c4cccnc4)CC3)CC2)(C(=O)N2CCc3ncc(C(F)(F)F)cc3C2)C1` [Example 10, (2S,3S)-N-(2-(((1S,4R)-4-(4-(((1S,4R)-4-((4-((1S,3R)-3-(((3S,4S)-3-Methoxytetrahydro-2H-pyran-4-yl)amino)-1-(3-(trifluoromethyl)-5,6,7,8-tetrahydro-1,6-naphthyridine-6-carbonyl)cyclopentyl)butyl)carbamoyl)cyclohexyl)amino)-4-oxobutoxy)cyclohexyl)oxy)ethyl)-1-methyl-5-oxo-2-(pyridin-3-yl)pyrrolidine-3-carboxamide]: in assay [1], the EC50 was 1.26 nM. In assay [2], this compound came in with an IC50 above 100000 nM. Also, the Emax at 100 µM in assay [2] (read-out: Maximum Response (%)) was 26%.

On to `CO[C@@H]1COCC[C@@H]1N[C@@H]1CC[C@@](C(=O)N2Cc3cc(C(F)(F)F)cnc3[C@H](NC(=O)CCOCCOCCOCCOCCOCCOCCOCCOCCOCCOCCOCCOCCNC(=O)[C@H]3CC(=O)N(C)[C@@H]3c3cccnc3)C2)(C(C)C)C1` [Example 23, (2S,3S)—N-(39-(((R)-6-((1S,3R)-1-Isopropyl-3-(((3S,4S)-3-methoxytetrahydro-2H-pyran-4-yl)amino)cyclopentane-1-carbonyl)-3-(trifluoromethyl)-5,6,7,8-tetrahydro-1,6-naphthyridin-8-yl)amino)-39-oxo-3,6,9,12,15,18,21,24,27,30,33,36-dodecaoxanonatriacontyl)-1-methyl-5-oxo-2-(pyridin-3-yl)pyrrolidine-3-carboxamide, 3Formic acid salt], for which the EC50 in assay [1] is 0.398 nM.

As to `CO[C@@H]1COCC[C@@H]1N[C@@H]1CC[C@](CCCNC(=O)[C@H]2CC[C@@H](NC(=O)CCCO[C@H]3CC[C@H](OCCNC(=O)[C@H]4CC(=O)N(C)[C@@H]4c4cccnc4)CC3)CC2)(C(=O)N2CCc3ncc(C(F)(F)F)cc3C2)C1` [Example 6, (2S,3S)-N-(2-(((1R,4S)-4-(4-(((1R,4S)-4-((3-((1S,3R)-3-(((3S,4S)-3-Methoxytetrahydro-2H-pyran-4-yl)amino)-1-(3-(trifluoromethyl)-5,6,7,8-tetrahydro-1,6-naphthyridine-6-carbonyl)cyclopentyl)propyl)carbamoyl)cyclohexyl)amino)-4-oxobutoxy)cyclohexyl)oxy)ethyl)-1-methyl-5-oxo-2-(pyridin-3-yl)pyrrolidine-3-carboxamide, Formic acid salt], the EC50 in assay [1] is 0.794 nM. Further, the IC50 in assay [2] was above 100000 nM. Also, in assay [2] (read-out: Maximum Response (%)), the Emax at 100 µM is 31%.

`CO[C@@H]1COCC[C@@H]1N[C@@H]1CC[C@@](C(=O)N2Cc3cc(C(F)(F)F)cnc3[C@@H](NC(=O)CCOCCOCCOCCOCCOCCOCCOCCOCCOCCOCCOCCOCCNC(=O)[C@H]3CC(=O)N(C)[C@@H]3c3cccnc3)C2)(C(C)C)C1` (stereo in doubt) [Example 24, (2S,3S)-N-(39-(((S)-6-((1S,3R)-1-Isopropyl-3-(((3S,4S)-3-methoxytetrahydro-2H-pyran-4-yl)amino)cyclopentane-1-carbonyl)-3-(trifluoromethyl)-5,6,7,8-tetrahydro-1,6-naphthyridin-8-yl)amino)-39-oxo-3,6,9,12,15,18,21,24,27,30,33,36-dodecaoxanonatriacontyl)-1-methyl-5-oxo-2-(pyridin-3-yl)pyrrolidine-3-carboxamide, 3Formic acid salt]: the EC50 in assay [1] was 1 nM.

For the compound `CO[C@@H]1COCC[C@@H]1N(CCCNC(=O)[C@H]1CC[C@H](NC(=O)CCCO[C@H]2CC[C@H](OCCNC(=O)[C@H]3CC(=O)N(C)[C@@H]3c3cccnc3)CC2)CC1)[C@@H]1CC[C@@](C(=O)N2CCc3ncc(C(F)(F)F)cc3C2)(C(C)C)C1` [Example 13, (2S,3S)-N-(2-(((1R,4S)-4-(4-(((1S,4R)-4-((3-(((1R,3S)-3-isopropyl-3-(3-(trifluoromethyl)-5,6,7,8-tetrahydro-1,6-naphthyridine-6-carbonyl)cyclopentyl)((3S,4S)-3-methoxytetrahydro-2H-pyran-4-yl)amino)propyl)carbamoyl)cyclohexyl)amino)-4-oxobutoxy)cyclohexyl)oxy)ethyl)-1-methyl-5-oxo-2-(pyridin-3-yl)pyrrolidine-3-carboxamide], the EC50 in assay [1] is 0.794 nM. The same compound had an IC50 in assay [2] above 100000 nM. Also, the Emax at 100 µM in assay [2] (read-out: Maximum Response (%)) stood at 37%.

Take `CO[C@@H]1COCC[C@@H]1N[C@@H]1CC[C@](CCCCNC(=O)CCOCCOCCO[C@H]2CC[C@H](OCCNC(=O)[C@H]3CC(=O)N(C)[C@@H]3c3cccnc3)CC2)(C(=O)N2CCc3ncc(C(F)(F)F)cc3C2)C1` [Example 21, (2S,3S)-N-(2-(((1r,4S)-4-(2-(2-(3-((4-((1S,3R)-3-(((3S,4S)-3-Methoxytetrahydro-2H-pyran-4-yl)amino)-1-(3-(trifluoromethyl)-5,6,7,8-tetrahydro-1,6-naphthyridine-6-carbonyl)cyclopentyl)butyl)amino)-3-oxopropoxy)ethoxy)ethoxy)cyclohexyl)oxy)ethyl)-1-methyl-5-oxo-2-(pyridin-3-yl)pyrrolidine-3-carboxamide, Formic acid salt]: in assay [1], the EC50 is 6.31 nM. The IC50 in assay [2] was above 10000 nM. Besides, the Emax at 10 µM in assay [2] (maximum percentage antagonism at Maximum Concentration of Compound Tested 10 μM, read-out: Maximum Response (%)) came out at 22%.

For the compound `CO[C@@H]1COCC[C@@H]1N[C@@H]1CC[C@](CCCCNC(=O)[C@H]2CC[C@@H](NC(=O)CCOCCOCCOCCNC(=O)[C@H]3CC(=O)N(C)[C@@H]3c3cccnc3)CC2)(C(=O)N2CCc3ncc(C(F)(F)F)cc3C2)C1` [Example 18, (2S,3S)-N-(2-(2-(2-(3-(((1R,4s)-4-((4-((1S,3R)-3-(((3S,4S)-3-Methoxytetrahydro-2H-pyran-4-yl)amino)-1-(3-(trifluoromethyl)-5,6,7,8-tetrahydro-1,6-naphthyridine-6-carbonyl)cyclopentyl)butyl)carbamoyl)cyclohexyl)amino)-3-oxopropoxy)ethoxy)ethoxy)ethyl)-1-methyl-5-oxo-2-(pyridin-3-yl)pyrrolidine-3-carboxamide, Formic acid salt], the EC50 in assay [1] was 5.01 nM.
